In general, IC50 refers to the concentration at which inhibition is half-maximal.

Among the data in patent US11655235B2, “Pyrrolidine and piperidine compounds” (YUHAN CORPORATION, priority 2019, dated 2023) are anticancer activities, DPP4 inhibitory activity and IC50 values, retold here.

For assay [1], the system named is tumors. To be noted: orally administered, mice; cited from earlier work.
The target in assay [2] is T1, DPP4 (Homo sapiens, UniProt P27487). To be noted: cited from earlier work.
Target sequence in this assay (P27487 whole entry, species assumed): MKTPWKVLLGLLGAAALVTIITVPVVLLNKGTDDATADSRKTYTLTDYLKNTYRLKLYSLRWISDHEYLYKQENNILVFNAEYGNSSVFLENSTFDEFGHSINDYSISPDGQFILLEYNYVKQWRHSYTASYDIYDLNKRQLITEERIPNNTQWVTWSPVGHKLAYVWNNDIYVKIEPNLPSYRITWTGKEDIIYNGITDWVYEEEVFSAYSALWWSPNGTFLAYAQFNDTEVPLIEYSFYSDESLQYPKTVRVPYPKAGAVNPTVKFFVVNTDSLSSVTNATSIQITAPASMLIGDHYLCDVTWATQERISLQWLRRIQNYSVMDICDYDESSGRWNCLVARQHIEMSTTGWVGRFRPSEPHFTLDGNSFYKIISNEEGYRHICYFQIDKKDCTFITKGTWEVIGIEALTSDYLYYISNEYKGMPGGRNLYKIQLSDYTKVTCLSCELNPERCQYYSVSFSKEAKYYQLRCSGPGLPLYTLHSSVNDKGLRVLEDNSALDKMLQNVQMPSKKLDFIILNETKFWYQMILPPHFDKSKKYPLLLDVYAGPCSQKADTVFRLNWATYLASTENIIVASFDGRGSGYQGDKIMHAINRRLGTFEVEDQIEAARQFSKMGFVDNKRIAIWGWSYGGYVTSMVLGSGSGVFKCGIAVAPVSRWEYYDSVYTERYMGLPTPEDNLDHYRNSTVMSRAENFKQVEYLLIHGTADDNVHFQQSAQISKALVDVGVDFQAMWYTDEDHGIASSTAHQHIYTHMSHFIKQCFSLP
Assay [3] deals with T2, Recombinant human FAP (Homo sapiens, UniProt Q12884).
T2 construct: purchased R&D systems
T2 sequence (Q12884 1-760): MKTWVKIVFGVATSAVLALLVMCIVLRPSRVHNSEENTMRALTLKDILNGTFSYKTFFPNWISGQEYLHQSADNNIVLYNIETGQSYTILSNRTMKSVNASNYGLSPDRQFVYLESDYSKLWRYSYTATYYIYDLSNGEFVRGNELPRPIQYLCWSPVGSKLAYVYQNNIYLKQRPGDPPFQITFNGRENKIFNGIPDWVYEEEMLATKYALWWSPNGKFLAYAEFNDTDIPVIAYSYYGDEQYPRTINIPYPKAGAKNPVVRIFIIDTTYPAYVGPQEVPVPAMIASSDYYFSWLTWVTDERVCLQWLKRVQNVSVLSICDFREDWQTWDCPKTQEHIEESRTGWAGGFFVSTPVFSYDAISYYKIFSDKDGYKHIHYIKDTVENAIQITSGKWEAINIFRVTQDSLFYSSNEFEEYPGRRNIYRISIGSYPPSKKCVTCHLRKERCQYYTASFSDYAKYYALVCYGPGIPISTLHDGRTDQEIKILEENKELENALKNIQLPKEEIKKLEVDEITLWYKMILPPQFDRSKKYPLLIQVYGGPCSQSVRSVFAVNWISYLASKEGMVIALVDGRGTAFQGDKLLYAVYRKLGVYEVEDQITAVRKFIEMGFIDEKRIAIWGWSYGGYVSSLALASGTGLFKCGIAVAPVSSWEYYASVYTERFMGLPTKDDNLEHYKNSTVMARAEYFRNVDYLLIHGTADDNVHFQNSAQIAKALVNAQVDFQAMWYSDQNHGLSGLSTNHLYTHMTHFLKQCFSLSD
The assay can be described thus: FAP FRET assay, FGF21-sequence FRET peptide substrate. The format is biochemical. The note with it: FRET peptide with human FGF21 sequence, 6 μM, 37° C. In a few lines:
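Recombinant human FAP, 10 ng per reaction, in 50 mM HEPES pH 7.2 with 150 mM NaCl, 0.1 mg/ml BSA, 1 mM EDTA; HyLite Fluor 488/QXL 520 FRET peptide of human FGF21 sequence at 6 μM final, ≤0.1% DMSO, 37° C. IC50 from 8-point curves by four-parameter logistic fit.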

For assay [4], the target named is T3, recombinant human DPP7 (Homo sapiens, UniProt Q9UHL4).
T3 construct: purchased R&D Systems
Briefly: DPP7 inhibition, fluorogenic substrate Lys-Pro-AMC. To be noted: recombinant human DPP7. The class given is biochemical. In a few lines: (§1)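 Enzyme per reaction: 50 ng DPP9, 20 ng DPP8, 10 ng each DPP7 and PREP. Compounds were serially diluted (8 points, up to 0.5% DMSO) and incubated at 25 °C.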

The target in assay [5] is T4, recombinant human DPP9 (Homo sapiens, UniProt Q86TI2).
T4 construct: purchased R&D Systems
T4 sequence (Q86TI2 whole entry): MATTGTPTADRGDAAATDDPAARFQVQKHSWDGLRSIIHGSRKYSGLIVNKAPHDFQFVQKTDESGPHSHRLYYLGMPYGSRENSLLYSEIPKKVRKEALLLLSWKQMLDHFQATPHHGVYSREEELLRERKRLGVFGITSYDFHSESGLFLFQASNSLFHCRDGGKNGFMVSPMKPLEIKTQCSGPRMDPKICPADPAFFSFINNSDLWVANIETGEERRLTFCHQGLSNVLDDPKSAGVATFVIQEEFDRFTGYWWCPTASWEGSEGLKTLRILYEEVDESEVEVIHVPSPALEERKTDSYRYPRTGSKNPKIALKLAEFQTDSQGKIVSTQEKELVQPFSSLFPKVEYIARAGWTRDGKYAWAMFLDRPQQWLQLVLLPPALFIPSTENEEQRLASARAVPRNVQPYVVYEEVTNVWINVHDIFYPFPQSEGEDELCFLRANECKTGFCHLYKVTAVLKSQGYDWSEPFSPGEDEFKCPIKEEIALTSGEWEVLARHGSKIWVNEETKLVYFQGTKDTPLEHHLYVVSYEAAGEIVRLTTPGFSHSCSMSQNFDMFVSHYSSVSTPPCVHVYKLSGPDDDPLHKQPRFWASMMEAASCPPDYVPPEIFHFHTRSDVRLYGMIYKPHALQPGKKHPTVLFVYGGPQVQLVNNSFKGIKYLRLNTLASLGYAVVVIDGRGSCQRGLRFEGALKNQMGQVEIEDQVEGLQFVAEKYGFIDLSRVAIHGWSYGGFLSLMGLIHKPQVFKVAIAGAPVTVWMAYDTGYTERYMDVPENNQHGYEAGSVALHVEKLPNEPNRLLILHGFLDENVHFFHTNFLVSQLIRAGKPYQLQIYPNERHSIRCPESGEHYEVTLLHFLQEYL
The assay can be described thus: DPP9 inhibition, fluorogenic substrate H-Gly-Pro-AMC. The format is biochemical. The note with it: recombinant human DPP9. In a few lines: as §1

Assay [6] addresses T5, recombinant human DPP8 (Homo sapiens, UniProt Q6V1X1).
T5 construct: purchased PBS Bioscience
The assay can be described thus: DPP8 inhibition, fluorogenic substrate Z-Ala-Pro-AMC. The format is biochemical. The note with it: recombinant human DPP8. In a few lines:
as §1

In assay [7] the target is T6, recombinant human PREP (Homo sapiens, UniProt P48147).
T6 construct: purchased R&D System
T6 sequence (P48147 1-710): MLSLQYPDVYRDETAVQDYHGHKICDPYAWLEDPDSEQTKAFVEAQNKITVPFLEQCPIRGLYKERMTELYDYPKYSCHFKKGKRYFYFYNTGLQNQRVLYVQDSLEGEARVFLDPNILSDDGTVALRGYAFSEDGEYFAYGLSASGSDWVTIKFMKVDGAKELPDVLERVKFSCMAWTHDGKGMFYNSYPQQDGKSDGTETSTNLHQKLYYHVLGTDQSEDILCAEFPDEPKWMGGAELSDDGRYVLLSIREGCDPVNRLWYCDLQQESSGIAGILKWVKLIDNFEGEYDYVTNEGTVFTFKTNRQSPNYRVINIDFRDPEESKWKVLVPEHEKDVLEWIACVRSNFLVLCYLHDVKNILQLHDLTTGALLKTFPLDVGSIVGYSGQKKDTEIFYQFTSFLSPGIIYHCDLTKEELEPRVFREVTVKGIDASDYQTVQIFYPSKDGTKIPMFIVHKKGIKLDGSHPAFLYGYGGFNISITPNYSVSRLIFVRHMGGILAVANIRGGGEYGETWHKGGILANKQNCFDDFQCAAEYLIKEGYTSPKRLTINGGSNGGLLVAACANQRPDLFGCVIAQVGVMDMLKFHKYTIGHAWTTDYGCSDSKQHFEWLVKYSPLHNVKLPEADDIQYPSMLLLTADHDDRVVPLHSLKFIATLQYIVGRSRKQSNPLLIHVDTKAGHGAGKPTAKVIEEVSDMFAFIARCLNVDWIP
The assay can be described thus: PREP inhibition, fluorogenic substrate Z-Gly-Pro-AMC. The format is biochemical. The note with it: Inhibitory Activity (IC50, nM) PREP, recombinant human PREP. An outline of the steps: as §1

In assay [8] the target is T1, DPP4. The assay can be described thus: DPP4 inhibition, fluorogenic substrate H-Gly-Pro-AMC. More on the design: purchased R&D Systems. To be noted: recombinant human DPP4. The format is biochemical.
Target sequence in this assay (P27487 whole entry): as the sequence (P27487 whole entry, species assumed) above

T5 sequence (Q6V1X1 whole entry): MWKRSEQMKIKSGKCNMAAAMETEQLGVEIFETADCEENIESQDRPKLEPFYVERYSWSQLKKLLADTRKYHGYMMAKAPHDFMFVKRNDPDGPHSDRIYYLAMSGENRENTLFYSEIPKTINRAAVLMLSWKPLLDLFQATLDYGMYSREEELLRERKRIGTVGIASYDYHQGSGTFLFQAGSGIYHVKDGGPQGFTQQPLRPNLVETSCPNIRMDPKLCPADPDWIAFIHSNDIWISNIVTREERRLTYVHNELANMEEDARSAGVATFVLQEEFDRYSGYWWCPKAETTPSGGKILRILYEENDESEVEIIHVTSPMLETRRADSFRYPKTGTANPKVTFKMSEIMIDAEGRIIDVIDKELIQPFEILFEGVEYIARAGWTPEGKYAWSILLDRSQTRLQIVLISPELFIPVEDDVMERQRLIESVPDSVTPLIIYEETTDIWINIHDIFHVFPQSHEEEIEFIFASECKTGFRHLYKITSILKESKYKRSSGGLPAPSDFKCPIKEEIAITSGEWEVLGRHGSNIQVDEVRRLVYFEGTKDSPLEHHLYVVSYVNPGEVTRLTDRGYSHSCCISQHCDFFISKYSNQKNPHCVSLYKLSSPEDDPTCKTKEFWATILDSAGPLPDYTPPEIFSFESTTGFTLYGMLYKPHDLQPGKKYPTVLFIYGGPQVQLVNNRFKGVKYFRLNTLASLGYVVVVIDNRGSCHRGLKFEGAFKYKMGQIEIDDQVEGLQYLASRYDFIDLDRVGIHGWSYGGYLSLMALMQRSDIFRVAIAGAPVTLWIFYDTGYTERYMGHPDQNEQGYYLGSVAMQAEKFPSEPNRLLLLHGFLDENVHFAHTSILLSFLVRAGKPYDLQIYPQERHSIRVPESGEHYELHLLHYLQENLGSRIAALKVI

Take `CC(C)[C@H](N)C(=O)N1CCC[C@H]1B(O)O` [ValboroPro, Val-boroPro]: the anticancer activities entry in assay [1] is “exhibits anticancer activities in mice by delaying the proliferation of tumors and inducing the degeneration of tumors”.
For the compound `CC(C)[C@H](N)C(=O)N1CCC[C@H]1B(O)O` [Val-boroPro, Talabostat], the DPP4 inhibitory activity entry in assay [2] is “inhibitory activity”.
For `N#C[C@@H]1CCCN1C(=O)CN1CCC(Nc2ccc(C(=O)Nc3cccnc3)c3ncccc23)CC1` [Example 400, 5-[[1-[2-oxo-2-[(2S)-2-cyanopyrrolidin-1-yl]ethyl]-4-piperidyl]amino]-N-(3-pyridyl)quinoline-8-carboxamide], the IC50 is 2.3 nM in assay [3]; 961 nM in assay [4]; 2010 nM in assay [5]; 971 nM in assay [6]; 1960 nM in assay [7]; 17400 nM in assay [8].
`CN(c1cccc2ncc(F)cc12)[C@H]1CCN(CC(=O)N2C[C@@H](F)C[C@H]2C#N)C1` [Example 156, (2S,4S)-4-fluoro-1-(2-((S)-3-((3-fluoroquinolin-5-yl)(methyl)amino)pyrrolidin-1-yl)acetyl)pyrrolidine-2-carbonitrile]: the IC50 in assay [3] came to 2.7 nM; in assay [4] it was 5060 nM; in assay [5] it was 6790 nM; in assay [6], 12000 nM; in assay [7] it was 1020 nM; in assay [8], 736 nM.
On to `CN(c1ccc(F)c2ncccc12)[C@H]1CCN(CC(=O)N2C[C@@H](F)C[C@H]2C#N)C1` [Example 158, (2S,4S)-4-fluoro-1-(2-((S)-3-((8-fluoroquinolin-5-yl)(methyl)amino)pyrrolidin-1-yl)acetyl)pyrrolidine-2-carbonitrile], for which the IC50 in assay [3] is 4 nM; in assay [4], 4900 nM; in assay [5], 3370 nM; in assay [6] it was 8620 nM; in assay [7], 1720 nM; in assay [8], 2090 nM.
For the compound `N#C[C@@H]1CCCN1C(=O)CN1CCC(Nc2ccc(C(=O)Nc3ncccn3)c3ncccc23)CC1` [Example 402, 5-[[1-[2-oxo-2-[(2S)-2-cyanopyrrolidin-1-yl]ethyl]-4-piperidyl]amino]-N-pyrimidin-2-yl-quinoline-8-carboxamide], the IC50 in assay [3] was 3.7 nM; in assay [4] it was 1160 nM; in assay [5], 7830 nM; in assay [6] it was 1520 nM; in assay [7], 359 nM; in assay [8], 12400 nM.
As to `Cc1cc(OC2CCN(CC(=O)N3C[C@@H](F)C[C@H]3C#N)CC2)c2cc(F)ccc2n1` [Example 437, (2S,4S)-4-fluoro-1-[2-[4-[(6-fluoro-2-methyl-4-quinolyl)oxy]-1-piperidyl]acetyl]pyrrolidine-2-carbonitrile], the IC50 is 1.8 nM in assay [3]; 6260 nM in assay [4]; 17400 nM in assay [5]; 4150 nM in assay [6]; 454 nM in assay [7]; 4490 nM in assay [8].
